Like-named read-outs stand apart in the source and are kept apart here.
Legend:
[1] = test system: LNCaP/AR cells; experiment: Inhibition of the proliferation of LNCap/AR cells (CCK-8); assay type: cell-based; conditions: read-out: LNCap/AR IC50
Summary of the method: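 LNCaP/AR cells (1000/well, RPMI1640 + 10% FBS) were treated for 6 days at 37 °C with 9-point 3-fold dilutions from 10 μM final, 0.1% DMSO, in duplicate. Viability was read by CCK-8 absorbance at 450 nm after 1 h, and IC50 came from a dose-response-inhibition fit.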

[2] = test system: 22RV1 cells; experiment: Inhibition of the proliferation of drug-resistant prostate cancer cell 22RV1 (CCK-8); assay type: cell-based; conditions: 22RV1 cells (enzalutamide-resistant), same method
Summary of the method: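 22RV1 cells, 1000/well in RPMI1640 with 10% FBS, treated in duplicate with 9-point 3-fold dilutions from 10 μM (0.1% DMSO final). After 6 days at 37 °C, CCK-8 added for 1 h and OD450 read. IC50 from dose-response inhibition fit.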

[3] = LNCaP/AR cells, 6 days culture, CCK-8
[4] = 144 h, LNCaP/AR cells, 6 days culture, CCK-8

IC50 ([2]; Homo sapiens) [nM]	IC50 [1, 3] [nM]	IC50 [2] [nM]	IC50 [1, 4] [nM]	SMILES	IC50 ([1]; LNCaP/AR, 144 h) [nM]
–	101 to 500	> 2000	–	Cc1ccc(-c2c(C)noc2C)cc1N(CC1CCC(Nc2ccc3c(c2)C(=O)N(C2CCC(=O)NC2=O)C3=O)CC1)c1ccc(C2(C#N)CC2)cc1 (stereo not shown) [Compound 116, 1-(4-((5-(3,5-Dimethylisoxazol-4-yl)-2-methylphenyl)((((1r,4r)-4-((2-(2,6-dioxopiperidin-3-yl)-1,3-dioxoisoindolin-5-yl)amino)cyclohexyl)methyl)amino)phenyl)cyclopropanecarbonitrile]	–
> 2000	–	–	> 2000	Cc1ccc(-c2c(C)noc2C)cc1N(CC1CN(C2CCN(c3cc4c(cc3F)C(=O)N(C3CCC(=O)NC3=O)C4=O)CC2)C1)c1ccc(C2(C#N)CC2)cc1 (stereo not shown) [Compound 139, 1-(4-((5-(3,5-dimethylisoxazol-4-yl)-2-methylphenyl)((1-(1-(2-(2,6-dioxopiperidin-3-yl)-6-fluoro-1,3-dioxoisoindolin-5-yl)piperidin-4-yl)azetidin-3-yl)methyl)amino)phenyl)cyclopropane-1-carbonitrile]	–
> 2000	–	–	> 2000	Cc1ccc(-c2c(C)noc2C)cc1N(CC1CN([C@H]2C[C@@H](Nc3cc4c(cc3F)C(=O)N(C3CCC(=O)NC3=O)C4=O)C2)C1)c1ccc(C2(C#N)CC2)cc1 (stereo partly shown) [Compound 71, 1-(4-((5-(3,5-dimethylisoxazol-4-yl)-2-methylphenyl)((1-((1s,3s)-3-((2-(2,6-dioxopiperidin-3-yl)-6-fluoro-1,3-dioxoisoindolin-5-yl)amino)cyclobutyl)azetidin-3-yl)methyl)amino)phenyl)cyclopropane-1-nitrile]	–
501 to 2000	–	–	101 to 500	Cc1ccc(-c2c(C)noc2C)cc1N(CCCCNc1cc2c(cc1F)CN(C1CCC(=O)NC1=O)C2=O)c1ccc(C2(C#N)CC2)cc1 (stereo not shown) [Compound 42, 1-(4-((5-(3,5-Dimethylisoxazol-4-yl)-2-methylphenyl)(4-((2-(2,6-dioxopiperidin-3-yl)-6-fluoro-3-oxoisoindolin-5-yl)amino)butyl)amino)phenyl)cyclopropane-1-nitrile]	–
> 2000	–	–	< 100	Cc1ccc(-c2c(C)noc2C)cc1N(CCCNc1cc2c(cc1F)C(=O)N(C1CCC(=O)NC1=O)C2)c1ccc(C2(C#N)CC2)cc1 (stereo not shown) [Compound 176, 1-(4-((5-(3,5-dimethylisoxazol-4-yl)-2-methylphenyl)(3-((2-(2,6-dioxopiperidin-3-yl)-6-fluoro-1-oxoisoindolin-5-yl)amino)propyl)amino)phenyl)cyclopropane-1-nitrile]	–
> 2000	–	–	> 2000	Cc1ccc(-c2c(C)noc2C)cc1N(CCC(C)CCNc1cc2c(cc1F)CN(C1CCC(=O)NC1=O)C2=O)c1ccc(C2(C#N)CC2)cc1 (stereo not shown) [Compound 190, 1-(4-((5-(3,5-dimethylisoxazol-4-yl)-2-methylphenyl)(5-((2-(2,6-dioxopiperidin-3-yl)-6-fluoro-3-oxoisoindolin-5-yl)amino)-3-methylpentanyl)amino)phenyl)cyclopropane-1-carbonitrile]	–
–	501 to 2000	> 2000	–	Cc1ccc(-c2c(C)noc2C)cc1N(CC1CC2(C1)CN(c1cc3c(cc1F)CN(C1CCC(=O)NC1=O)C3=O)C2)c1ccc(C2(C#N)CC2)cc1 (stereo not shown) [Compound 126, 1-(4-((5-(3,5-dimethylisoxazol-4-yl)-2-methylphenyl)((2-(2-(2-,2,6-dioxopiperidin-3-yl)-6-fluoro-3-oxoisoindolin-5-yl)-2-azaspiro[3.3]heptan-6-yl)methyl)amino)phenyl)cyclopropane-1-carbonitrile]	–
> 2000	–	–	> 2000	Cc1ccc(-c2c(C)noc2C)cc1N(C[C@H]1C[C@@H]1CNc1ccc2c(c1)C(=O)N(C1CCC(=O)NC1=O)C2)c1ccc(C2(C#N)CC2)cc1 (stereo partly shown) [Compound 186]	–
< 100	–	–	< 100	Cc1ccc(-c2c(C)noc2C)cc1N(CC1CCN(C2CN(c3ccc4c(c3)C(=O)N(C3CCC(=O)NC3=O)C4=O)C2)CC1)c1ccc(C2(C#N)CC2)cc1 (stereo not shown) [Compound 109, 1-(4-((5-(3,5-Dimethylisoxazol-4-yl)-2-methylphenyl)((1-(1-(2-(2,6-dioxopiperidin-3-yl)-1,3-dioxoisoindolin-5-yl)azetidin-3-yl)piperidin-4-yl)methyl)amino)phenyl)cyclopropanecarbonitrile]	–
< 100	–	–	101 to 500	Cc1ccc(-c2c(C)noc2C)cc1N(CCCC1CCN(c2ccc3c(c2)CN(C2CCC(=O)NC2=O)C3=O)CC1)c1ccc(C2(C#N)CC2)cc1 (stereo not shown) [Compound 32, 1-(4-((5-(3,5-Dimethylisoxazol-4-yl)-2-methylphenyl)(3-(1-(2-(2,6-dioxopiperidin-3-yl)-1-oxoisoindolin-5-yl)piperidin-4-yl)propyl)amino)phenyl)cyclopropane-1-nitrile]	–
> 2000	–	–	> 2000	Cc1ccc(-c2c(C)noc2C)cc1N(CC1CCN(CC2CN(c3ccc4c(c3)C(=O)N(C3CCC(=O)NC3=O)C4=O)C2)CC1)c1ccc(C2(C#N)CC2)cc1 (stereo not shown) [Compound 78, 1-(4-((5-(3,5-dimethylisoxazol-4-yl)-2-methylphenyl)((1-((1-(2-(2,6-dioxopiperidin-3-yl)-1,3-dioxoisoindolin-5-yl)azetidin-3-yl)methyl)piperidin-4-yl)methyl)amino)phenyl)cyclopropane-1-carbonitrile]	–
101 to 500	–	–	501 to 2000	Cc1ccc(-c2c(C)noc2C)cc1N(CC(C)OC1CCN(c2cc3c(cc2F)C(=O)N(C2CCC(=O)NC2=O)C3=O)CC1)c1ccc(C2(C#N)CC2)cc1 (stereo not shown) [Compound 188]	–
501 to 2000	–	–	> 2000	Cc1ccc(-c2c(C)noc2C)cc1N(CCC(C)CCNc1cc2c(cc1F)C(=O)N(C1CCC(=O)NC1=O)C2=O)c1ccc(C2(C#N)CC2)cc1 (stereo not shown) [Compound 189, 1-(4-((5-(3,5-dimethylisoxazol-4-yl)-2-methylphenyl)(5-((2-(2,6-dioxopiperidin-3-yl)-6-fluoro-1,3-dioxoisoindolin-5-yl)amino)-3-methylpentanyl)amino)phenyl)cyclopropane-1-carbonitrile]	–
> 2000	–	–	> 2000	Cc1ccc(-c2c(C)noc2C)cc1N(CCOC1(C)CN(c2ccc3c(c2)C(=O)N(C2CCC(=O)NC2=O)C3=O)C1)c1ccc(C2(C#N)CC2)cc1 (stereo not shown) [Compound 110, 1-(4-((5-(3,5-Dimethylisoxazol-4-yl)-2-methylphenyl)(2-((1-(2-(2,6-dioxopiperidin-3-yl)-1,3-dioxoisoindolin-5-yl)-3-methylazetidin-3-yl)oxy)ethyl)amino)phenyl)cyclopropanecarbonitrile]	–
< 100	–	–	< 100	Cc1ccc(-c2c(C)noc2C)cc1N(CCCCCCNc1ccc2c(c1)CN(C1CCC(=O)NC1=O)C2=O)c1ccc(C2(C#N)CC2)cc1 (stereo not shown) [Compound 61, 1-(4-((5-(3,5-dimethylisoxazol-4-yl)-2-methylphenyl)(6-((2-(2,6-dioxopiperidin-3-yl)-1-oxoisoindolin-5-yl)amino)hexyl)amino)phenyl)cyclopropane-1-nitrile]	–
> 2000	–	–	> 2000	Cc1ccc(-c2c(C)noc2C)cc1N(c1ccc(C2(C#N)CC2)cc1)C1CC2(C1)CN(c1cc3c(cc1F)C(=O)N(C1CCC(=O)NC1=O)C3=O)C2 (stereo not shown) [Compound 170]	–
< 100	–	–	101 to 500	Cc1ccc(-c2c(C)noc2C)cc1N(CCCCCOCC(=O)N[C@H](C(=O)N1C[C@H](O)C[C@H]1C(=O)N[C@@H](C)c1ccc(-c2scnc2C)cc1)C(C)(C)C)c1ccc(C2(C#N)CC2)cc1 [Compound 143]	–
–	< 100	< 100	–	Cc1ccc(-c2c(C)noc2C)cc1N(CC1CN(C2CN(c3cc4c(cc3F)C(=O)N(C3CCC(=O)NC3=O)C4)C2)C1)c1ccc(C2(C#N)CC2)cc1 (stereo not shown) [Compound 158]	–

SMILES	IC50 ([2]; Homo sapiens) [nM]	IC50 [1, 3] [nM]	IC50 [2] [nM]	IC50 [1, 4] [nM]	IC50 ([1]; LNCaP/AR, 144 h) [nM]
Cc1ccc(-c2c(C)noc2C)cc1N(CC1CCC(CNc2ccc3c(c2)CN(C2CCC(=O)NC2=O)C3=O)CC1)c1ccc(C#N)c(Cl)c1 (stereo not shown) [Compound 133, 2-Chloro-4-((5-(3,5-dimethylisoxazol-4-yl)-2-methylphenyl)((1r,4r)-4-((2-(2,6-dioxopiperidin-3-yl)-1-oxoisoindolin-5-yl)amino)methyl)cyclohexyl)methyl)amino)benzonitrile]	< 100	–	–	–	< 100
CC(=O)O[C@@H]1C[C@@H](C(=O)N[C@@H](C)c2ccc(-c3scnc3C)cc2)N(C(=O)[C@@H](NC(=O)COCCCCCN(c2ccc(C#N)c(Cl)c2)c2cc(-c3c(C)n[nH]c3C)ccc2C)C(C)(C)C)C1 [Compound 80]	–	501 to 2000	> 2000	–	–
